The results in this text go back to patent publication US11466066B2, “Variants of human BMP7 protein” (ELI LILLY AND COMPANY, priority 2017, dated 2022).

The test system of test [1] is ADSC/ECFC co-culture stimulated with VEGF. In words: VEGF-driven cord formation. Format: cell-based. The settings on record: 100 nM; 10 ng/ml VEGF; 96 hours. The source says: (§1) An in vitro endothelial cord formation assay, a surrogate of angiogenesis, may be used to investigate the role of human BMP7 proteins on various growth factor established cords including, but not limited to, VEGF, basic FGF, and EGF established cords. Endothelial cord forming cells (ECFCs; passage 4-10 suitable for cord formation) may be cultured in EGM-2 MV (Lona) media containing a final concentration of 10% FBS and passaged onto type 1 collagen (fibrillar) coated flasks prior to seeding into the cord formation assay in vitro. […]
An ADSC/ECFC co-culture was unstimulated (basal) or stimulated with 10 ng/ml VEGF and treated simultaneously with PBS or 100 ng/ml human pro-BMP7 variant F9 or 100 nM sunitinib for 96 hours prior to immunohistochemistry for CD31 (green), α-smooth muscle actin (red), and Hoechst 33342 to stain all nuclei (blue). Resulting CD31-positive endothelial cords were visualized and quantitated using high content imaging. […]

For test [2], the system named is ADSC/ECFC co-culture stimulated with bFGF. In words: FGF-driven cord formation. Format: cell-based. The note with it: 100 nM; 10 ng/ml bFGF; 96 hours.
Text: as §1
An ADSC/ECFC co-culture was unstimulated (basal) or stimulated with 10 ng/ml bFGF and treated simultaneously with PBS or 100 ng/ml human pro-BMP7 variant F9 or 100 nM sunitinib for 96 hours prior to immunohistochemistry for CD31 (green), α-smooth muscle actin (red), and Hoechst 33342 to stain all nuclei (blue). Resulting CD31-positive endothelial cords were visualized and quantitated using high content imaging. […]

Test [3] has as its system ADSC/ECFC co-culture stimulated with EGF. In words: EGF-driven cord formation. Format: cell-based. The settings on record: 100 nM; 10 ng/ml EGF; 96 hours.
Text: as §1
An ADSC/ECFC co-culture was unstimulated (basal) or stimulated with 10 ng/ml EGF and treated simultaneously with PBS or 100 ng/ml human pro-BMP7 variant F9 or 100 nM sunitinib for 96 hours prior to immunohistochemistry for CD31 (green), α-smooth muscle actin (red), and Hoechst 33342 to stain all nuclei (blue). Resulting CD31-positive endothelial cords were visualized and quantitated using high content imaging. […]

The test system of the next test is 3T3-L1 fibroblasts. In words: Alkaline phosphatase stimulation in 3T3-L1 cells. Format: cell-based. The note with it: 1 μg/ml pro-BMP7, 1 μM ATRA, 48 hours. As to the method: (§2) 3T3-L1 fibroblasts and MFc7 mouse renal myofibroblasts may be grown essentially as described in Example 2 above. After 48 hours the cells may be washed with PBS prior to the addition of either DMEM/2% dialyzed FBS or OPTI-MEM/2% dialyzed FBS medium containing control vehicle, 1 μg/ml human proBMP7 protein, 1 μM ATRA or a combination of both human BMP7 protein (1 μg/ml) and ATRA (1 μM) may be added for 48 hours. After treatment the cells may be rinsed with PBS and stored at −80° C. for approximately 20 minutes. The cells may be thawed at 37° C. for 30 minutes and 100 μl of PNPP may be added to every well. The plate may be incubated at 37° C. for 1 hour. The absorbance at 405 nm may be read on a plate reader.

The test system of test [4] is MFc7 mouse renal myofibroblasts. In words: Alkaline phosphatase stimulation in MFc7 cells. It counts as cell-based. The note with it: 1 μg/ml pro-BMP7, 1 μM ATRA, 48 hours. As to the method:
as §2

The subject of a further test is SOX2. Kind of test: SOX2 expression in GBM cells. It counts as cell-based, human. The settings on record: ATRA 1 μg/ml, F9 100 ng/mL. The method, then:
(§3) Glioblastoma multiforme stem cells (GBMs) may be obtained from patients with primitive brain tumors undergoing complete or partial surgical resection. These cells may be maintained as neurospheres in defined media with 3.34 g/L of DMEM and 2.66 g/L F12 reconstituted in sterile distilled water and containing 1% glucose, 0.12% sodium bicarbonate, 5 mM hepes, 2 mM L-glutamine, 4 mg/L heparin, 10 ng/mL bFGF, 20 ng/mL EGF, 0.4% BSA, 100 μg/mL apotransferrin, 25 μg/mL insulin, 60 uM putrescine, 30 nM sodium selenite, and 20 nM progesterone. Cells may be cultured at 37° C. in 5% CO2. Cells may be plated by enzymatically dispersing spheres into single cells with a 2-5 minute incubation at 37° C. with TrypLE™ Express cell dissociation enzyme. The enzyme may be quenched with Dulbecco's Phosphate Buffered Saline (DPBS) containing Ca+ and Mg+. Then the cells may centrifuged to remove TrypLE and DPBS and resuspended as single cells in defined media and counted by a Coulter Z2 Cell and Particle counter.
(§4) Single GBM cells may be plated in defined media at 2×10^6 cells/15 mL/T75 flask for high content imaging or 5×10^5 cells/2 mL/well in 6-well plates for light microscopy. Cells may be treated with 0.01% DMSO, 1 μg/mL ATRA, 100 ng/mL of a human BMP7 protein variant of the present invention (e.g., human BMP7 protein variant F9 (SEQ ID NO: 8)), or a combination of 1 μg/mL ATRA and 100 ng/mL human BMP7 protein variant of the present invention. For light microscopy imaging of the effect of control BMPs (BMP2 and BMP4), cells may be plated as above in 6-well dishes and treated with 0.01% DMSO, 1 μg/mL ATRA, 100 ng/mL BMP2, 50 ng/mL BMP4, or a combination of BMPs at the same concentrations plus 1 μg/mL ATRA. Example images may be captured at 3, 7, and 30 days post-treatment on a Leica DMIRM inverted microscope using a 20× objective, for example. For growth longer than 7 days, media and treatment may be changed approximately every 10 days beginning at day 10. […]

Another test has as its system Ki67. Kind of test: Ki67 expression in GBM cells. The settings on record: ATRA 1 μg/ml, F9 100 ng/mL. It counts as cell-based, human. The method, then: as §3, §4

With `CCN(CC)CCNC(=O)c1c(C)[nH]c(/C=C2\C(=O)Nc3ccc(F)cc32)c1C` [sunitinib, reference compound], in test [1], the “Connected Tube Area - VEGF (% PBS)” value worked out at 26.14 ± 9.88%. Moreover, the “Connected Tube Area - FGF (% PBS)” value in test [2] is given as 43.01 ± 18.28%. In test [3], the “Connected Tube Area - EGF (% PBS)” value stood at 9.89 ± 8.059%.

For the compound `CC1=C(/C=C/C(C)=C/C=C/C(C)=C/C(=O)O)C(C)(C)CCC1` [ATRA, All-trans retinoic acid, reference compound], the “fold change in alkaline phosphatase stimulation relative to control vehicle treated cells” value with 3T3-L1 fibroblasts is 2.9 fold; in test [4], 8 fold. Further, the “SOX2 percent responders normalized to vehicle control” value was determined as 97% with SOX2 (GBM clone CL-1, Day 3); 89% in the test with SOX2 (GBM clone CL-61, Day 0); 97% in the test with SOX2 (GBM clone Cl-1, Day 25). For the same compound, the “Ki67 percent responders normalized to vehicle control” value in the test with Ki67 (GBM clone CL-1, Day 3) is reported as 99%; with Ki67 (GBM clone CL-61, Day 0) it was 83%; with Ki67 (GBM clone Cl-1, Day 25), 101%.
